{"source": "patent US12144791B2", "about": "“KRAS agonists, pharmaceutical compositions, and uses in managing cancer” (Emory University, priority 2019, dated 2024)", "key": {"[1]": {"molecular_target": "KRAS WT (Homo sapiens, UniProt P01116)", "test": "Thermal shift assay, purified KRAS WT", "format": "binding", "conditions": "increasing concentrations", "procedure": "(§1) Melting temperature (Tm) values of DMSO Ctrl and 15 μM of KRA-533 are shown.\nMelting temperature (Tm) values of DMSO control and 15 μM KRA-533 are shown.\n(§2) To test whether KRA-533 directly binds to KRAS, a thermal shift assay was employed. […] To further assess whether KRA-533 activates KRAS directly, an in vitro cell-free GDP-GTP exchange experiment was carried out. Purified WT, G12C, G12D or G13D mutant KRAS proteins were incubated with purified GEF (RASGRP1) and GAP (RASA1) proteins in reaction buffer containing [γ-35S]-GTP in the absence or presence of increasing concentrations of KRA-533 at 25° C. for 60 min. KRAS activity was quantified by liquid scintillation counting. […] These findings indicate that KRA-533 not only activates WT KRAS but also has the capacity to further enhance KRAS activity of mutant KRAS.\n(§3) To further test this intracellularly, GFP-tagged WT, S17A, K117A and AA KRAS mutants were exogenously transfected into A549 cells. […] Activities of exogenous GFP-tagged WT and KRAS mutants were analyzed by Western blot using GFP antibody."}, "[2]": {"molecular_target": "KRAS G12C (Homo sapiens, UniProt P01116, G12C)", "test": "Thermal shift assay, purified KRAS G12C", "format": "binding", "conditions": "increasing concentrations", "procedure": "as §1, §2"}, "[3]": {"molecular_target": "KRAS G13D (Homo sapiens, UniProt P01116, G13D)", "test": "Thermal shift assay, purified KRAS G13D", "format": "binding", "conditions": "increasing concentrations", "procedure": "as §1, §2"}, "[4]": {"molecular_target": "T1, GFP-tagged KRAS WT (Homo sapiens, UniProt P01116)", "T1 construct": "expressed in transfected cells; host or cells: A549", "test": "Raf-1-RBD pull-down of exogenous GFP-tagged KRAS WT in A549 cells", "format": "cell-based", "conditions": "15 μM, 48 h", "procedure": "The GFP-tagged exogenous KRAS-GTP (GFP-KRAS-GTP) was analyzed by Western blot using anti-GFP antibody.\nas §3"}, "[5]": {"test_system": "A549, H157, Calu-1 and H292 cells", "test": "GFP-LC3 autophagosome quantification", "format": "cell-based, human", "conditions": "48 h", "procedure": "After 24 h, cells were treated with KRA-533 for 48 h. The percentages of LC3-GFP-transfected cells bearing LC3-GFP aggregates (LC3-FGPvac) were quantified as shown.\nActivated KRAS can trigger cell death via apoptosis and autophagy-associated cell death in cancer cells. To test whether KRA-533- activated KRAS promotes apoptosis and autophagic cell death, A549, H157, Calu-1 and H292 cells were treated with increasing concentrations of KRA-533 for 48 h, followed by analysis of KRAS activity, apoptosis and autophagy. […] Autophagy was measured by analysis of LC3-I/LC3-II and p62 following treatment of cells with KRA-533. It is well known that p62 is an autophagy receptor or substrate that can be degraded by autophagy. In addition to LC3-II, p62 was analyzed as another autophagy marker. […] To further quantify the level of autophagy, a GFP-LC3 construct was used to indicate autophagosomes. After treatment with KRA-533, GFP-LC3 redistributed from a diffuse staining pattern in the cytoplasm and nucleus to a cytoplasmic punctate structure that specifically labels pre-autophagosomal and autophagosomal membranes (i.e. GFP-LC3 vac cells). […] These findings indicate that, in addition to apoptosis, KRA-533 can also induce autophagic cell death."}, "[6]": {"test_system": "A549 and H157 cells", "test": "Western blot of autophagy marker p62 with or without chloroquine", "format": "cell-based, human", "conditions": "48 h", "procedure": "To assess whether the autophagy inhibitor regulates KRA-533-induced autophagy formation, A549 and H157 cells were treated with KRA-533 in the absence or presence of autophagy inhibitor chloroquine for 48 h, followed by Western blot analysis of the autophagy marker p62."}, "[7]": {"test_system": "A549 cells", "test": "Apoptotic and autophagic cell death after KRAS shRNA knockdown", "format": "cell-based, human", "conditions": "G12S mutant KRAS depleted by KRAS shRNA; 15 μM, 48 h", "procedure": "To further test whether KRAS is a required target for KRA-533 to induce apoptotic and autophagic cell death, G12S mutant KRAS was depleted using KRAS shRNA from A549 cells, followed by treatment with KRA-533 (15 μM) for 48 h."}, "[8]": {"test_system": "A549 xenografts bearing mutant KRAS", "test": "A549 lung cancer xenografts bearing KRAS mutation (G12S)", "format": "in vivo", "procedure": "Tumor volume was measured once every 2 days (left panel). Tumor volumes of 6 individual mice in each group were compared on day 28 (right panel). After 28 days, the mice were sacrificed, and the tumors were removed and analyzed.\nExpression levels of active caspase-3, cleaved PARP, Beclin-1 and LC3-II in tumor tissues were analyzed by Western blot.\nTo test the potency of KRA-533 in vivo, lung cancer xenografts derived from A549 cells bearing KRAS mutation (G12S) were treated with increasing doses (0, 7.5, 15, and 30 mg/kg/day) of KRA-533 i.p. for 28 days. […] To assess whether KRA-533 induced suppression of tumor growth via apoptosis and autophagy in vivo, representative samples from harvested tumor tissues were analyzed by immunohistochemistry (IHC) for active caspase-3 or LC3-II."}, "[9]": {"conditions": "0, 7.5, 15, and 30 mg/kg/day i.p. for 28 days"}}, "note": "“Also recorded” adds a separate entry of the source."}
{"smiles": "O=C(CBr)NCCCCc1ccc(C(=O)O)cc1", "note": "[KRA-533, 4-(4-(2-bromoacetamido)butyl)benzoic acid]", "values": [{"measurement": "melting temperature (Tm) / binding, KRAS WT", "setting": "[1]", "value": "Dose dependent increases in melting temperature (Tm); also recorded: could bind"}, {"measurement": "melting temperature (Tm) / binding, KRAS G12C", "setting": "[2]", "value": "Dose dependent increases in melting temperature (Tm)"}, {"measurement": "melting temperature (Tm) / binding, KRAS G13D", "setting": "[3]", "value": "Dose dependent increases in melting temperature (Tm)"}, {"measurement": "activity of exogenous GFP-tagged WT KRAS (GFP-KRAS-GTP)", "setting": "[4]", "value": "activated exogenous WT and S17A"}, {"measurement": "percentage of GFP-LC3vac cells", "setting": "[5]", "value": "enhanced the percentage of GFP-LC3vac cells in a dose-dependent manner"}, {"measurement": "autophagy marker p62, KRA-533 alone", "setting": "[6]", "value": "induced autophagy with deceased p62 level via degradation"}, {"measurement": "cell sensitivity to apoptotic and autophagic cell death after knockdown of mutant KRAS", "setting": "[7]", "value": "significantly reduced cell sensitivity to the induction of apoptotic and autophagic cell death"}, {"measurement": "apoptosis and autophagy in tumor tissues (IHC active caspase-3, LC3-II)", "setting": "[8]; [9]", "value": "induced apoptosis and autophagy in tumor tissues in a dose-dependent manner"}, {"measurement": "tumor growth", "setting": "[8]; [9]", "value": "suppressed tumor growth in a dose-dependent manner"}, {"measurement": "blood cells (WBC, RBC and PLT), BUN and ALT/AST", "setting": "[8]; 7.5˜30 mg/kg/d", "value": "in the normal range"}, {"measurement": "body weight", "setting": "[8]; 7.5˜30 mg/kg/d", "value": "no weight loss"}, {"measurement": "tolerability", "setting": "[8]; 7.5˜30 mg/kg/d", "value": "well tolerated without significant toxicity"}, {"measurement": "histopathology of normal tissues (brain, heart, lung, liver, spleen, kidney and intestine)", "setting": "[8]; 7.5˜30 mg/kg/day", "value": "no evidence of normal tissue toxicities"}, {"measurement": "active KRAS in tumor tissues (Raf-1-RBD pull-down)", "setting": "[8]; tumor tissue lysates after 28 days", "value": "accumulation of active KRAS in tumor tissues"}]}
